Source: patent publication US20260200965A1, “NOVEL COMPOUND DERIVED FROM LORANTHUS TANAKAE AND ANTICANCER USE THEREOF” (KOREA INSTITUTE OF ORIENTAL MEDICINE, priority 2022, published 2026)
Several values for one entry are separate records, joined by “and”; a condition that tells them apart may be missing. Equal entries are not always repeated.

Legend:
[1] = tested on: NHDF (normal human dermal fibroblast) cells; test: Toxicity test in normal cells (WST-8); format: cell-based
Procedure: NHDF (normal human dermal fibroblast; ATCC, USA) cells were seeded at about 5,000 cells per well in a 96-well plate and stabilized for 24 hours, and then treated with Lotanoside B isolated in Example 2 at various concentrations (0, 6.25, 12.5, 25, or 50 μM). As a control group, 5-FU (anticancer drug) and kaempferol were treated at various concentrations (5-FU: 0, 1.25, 2.5, 5 or 10 μM; kaempferol: 0, 5, 10, 20 or 40 μM). After culturing in a CO2 incubator for 48 hours, WST-8 ((2-(2-methoxy-4-nitrophenyl)-3-(4-nitrophenyl)-5-(2,4-disulfophenyl)-2H-tetrazolium, monosodium salt) reagent was treated, and after culturing for 2 hours, the optical density (OD) was measured at a wavelength of 450 nm by using a microplate reader.

[2] = tested on: mouse skin epithelial cell JB6; test: EGF-induced cell transformation colony growth inhibition (soft agar); format: cell-based; conditions: EGF 10 ng/ml, JB6 colonies, about 2 weeks
Procedure: (§1) The carcinogenicity inhibitory effect of the extract of Loranthus tanakae Franch. & Sav was determined in a carcinogenic model in which the mouse skin epithelial cell JB6 (ATCC, USA) was treated with EGF, which is a growth factor that increases cancer cell occurrence, and TPA, which is a tumor-promoting factor, to induce malignant transformation.
(§2) Specifically, agar mix (0.5%) including BME, FBS, glutamine, gentamicin, PBS and 1.25% agar, EGF (10 ng/ml) or TPA (10 ng/ml) and the 70% ethanol extract of Loranthus tanakae Franch. & Sav prepared in Example 1-1 were mixed, dispensed into 6-well plates at 3 mL per well, and solidified (bottom agar). Mouse skin epithelial cells JB6 (ATCC, USA) were detached by trypsin treatment, washed with 1×PBS, and resuspended in 10% BME to determine the cell number. 8,000 cells were prepared per well, and agar mix (0.3%), EGF or TPA and the 70% ethanol extract of Loranthus tanakae Franch. & Sav prepared in Example 1-1 were mixed, dispensed into 1 mL per well, and solidified (upper agar). After culturing in a CO2 incubator for about 2 weeks, colonies were photographed under a microscope, and the number of colonies was counted by using Image-Pro Plus software (v.6.0) program (Media Cybernetics, Silver Spring, MD, USA).

[3] = tested on: mouse skin epithelial cell JB6; test: TPA-induced cell transformation colony growth inhibition (soft agar); format: cell-based; conditions: TPA 10 ng/ml, JB6 colonies, about 2 weeks
Procedure: as §1, §2

[4] = tested on: SKMEL-5 melanoma cancer cells; test: Cancer cell growth inhibition (WST-8 assay); format: cell-based
Procedure: SKMEL-5 melanoma cancer cells (ATCC, USA) were dispensed into a 96-well plate at 1,000 cells per well and stabilized for 24 hours, and then treated with Lotanoside B at different concentrations (0, 6.25, 12.5, 25 or 50 μM). As a control group, 5-FU (anticancer drug) and kaempferol were treated at different concentrations, respectively (5-FU: 0, 1.25, 2.5, 5 or 10 μM; kaempferol: 0, 5, 10, 20 or 40 μM). Afterwards, the cells were cultured in a CO2 incubator for 72 hours, and then treated with WST-8 ((2-(2-methoxy-4-nitrophenyl)-3-(4-nitrophenyl)-5-(2,4-disulfophenyl)-2H-tetrazolium, monosodium salt) reagent, and after culturing for about 2 hours, the optical density (OD) was measured at a wavelength of 450 nm by using a microplate reader.

[5] = tested on: DMBA/TPA-induced skin cancer; format: in vivo, ICR mice
Procedure: Female ICR mice (5 weeks old, 20~25 g) were purchased as experimental animals from Samtaco Co., Ltd. (Osan, Korea), and were provided with water and food freely in a cage equipped with a constant temperature and humidity device. After a one-week adaptation period, the hair on the back of the mice was removed, and they were divided into six groups as shown in Table 1 and raised for 20 weeks.
When DMBA (7,12-Dimethylbenz[a]anthracene), which induces carcinogenesis, is treated to the depilated area and TPA (12-Otetradecanoylphorbol-13-acetate, promoter) is continuously applied, skin inflammation and skin cancer are induced. […] TPA, Lotanoside B and 5-FU were diluted in acetone and topically treated to the back area twice a week, and the number and size of the tumors formed and the weight of the mice were measured.

[6] = 0.1 and 1 μmole topical twice a week, 20 weeks, vs DMBA/TPA group, reduction greater at 1 μmole

Q: How did the “concentration at which toxicity begins to show” value (“concentration” for short) ([1]; human, 48 h) turn out when `O=c1[nH]cc(F)c(=O)[nH]1` [5-FU, fluorouracil] was run?
A: 10 µM

Q: Which inhibition at 50 µM ([2]; Mus musculus, Epithelial cell, 336 h, 50 μM, read-out: inhibition rate compared to the EGF treatment group) does the source give for `COc1cc(O)c2c(=O)c(OC3OC(C)C(O)C(O)C3O)c(-c3ccc(OC4OC(COC(=O)/C=C/c5ccccc5)C(O)C(O)C4O)c(O)c3)oc2c1` (stereo not drawn) [Lotanoside B, rhamnetin-3-O-rhamnoside-4′-O-(6″-O-cinnamoyl)-glucoside] here?
A: 66.7%

Q: And the “inhibition rate compared to the TPA treatment group” value ([3]; 50 μM)?
A: 76.2%

Q: And the inhibition at 50 µM ([3]; Mus musculus, Epithelial cell, 336 h, 50 μM, read-out: inhibition rate compared to the TPA treatment group)?
A: 74.2%

Q: And the “concentration” value ([1]; human, 48 h)?
A: > 50 µM

Q: And the IC50 ([4]; Homo sapiens, SK-MEL-5, SKMEL-5, 72 hours, WST-8)?
A: 32.1 µM

Q: What about the “cancer cell growth inhibition effect compared to kaempferol” value ([4]; SKMEL-5, 72 hours, WST-8) of the same compound?
A: superior cancer cell growth inhibition effect compared to kaempferol

Q: And the “cancer cell growth inhibition effect” value ([4]; SKMEL-5, at a concentration that did not exhibit toxicity)?
A: 78.5%

Q: And the number of tumors [5, 6]?
A: decreased

Q: What about the tumor area [5, 6] of the same compound?
A: decreased

Q: And the tumor incidence [5, 6]?
A: decreased

Q: And the “effect in inhibiting skin cancer formation compared to 5-FU” value ([5]; 5-FU 0.1 μmole as positive control)?
A: superior effect in inhibiting skin cancer formation compared to 5-FU

Q: Which “concentration” value ([1]; NHDF, 48 hours, WST-8) does the source give for `O=c1c(O)c(-c2ccc(O)cc2)oc2cc(O)cc(O)c12` [kaempferol] here?
A: 40 µM

Q: What does the source list for `COc1cc(O)c2c(=O)c(OC3OC(CO)C(O)C(O)C3O)c(-c3ccc(O)c(O)c3)oc2c1` (stereo not drawn) [rhamnetin-3-O-glucoside]?
A: inhibition rate compared to the EGF treatment group ([2]; test concentration not given): 92.9%; inhibition rate compared to the TPA treatment group ([3]; test concentration not given): 76.2% and 74.2%
